{
  "source": "patent US7635693B2",
  "about": "“Methods for preventing and treating cancer using N-thiolated β-lactam compounds and analogs thereof” (University of South Florida, priority 2002, dated 2009)",
  "key": {"VA-13 cells": {"tested_on": "VA-13 cells", "conditions": "50 μM", "method": "(§1) (FIG. 19A) MTT assay. (FIG. 19B) Cell-free caspase-9 activity assay. A protein extract (20 μg) is incubated with 20 μM Ac-LEHD-AFC (the specific caspase-9 substrate) in a 96-well plate at 37° C. for 2 h. After incubation, the liberated florescent AFC groups are measured by Wallac Victor 1420 Multilabel counter with 405/535 nm filters. […] Both intact and active forms of caspase-3 are indicated. […] Both detached and attached populations of Va-13 or WI-38 cells are collected, and used for nuclear staining assay with DNA staining dye Hoechst 33342.\n(§2) An MTT assay was performed in a 96-well plate, which measures cellular mitochondrial function and thereby cytotoxicity."}, "WI-38 cells": {"tested_on": "WI-38 cells", "conditions": "50 μM", "method": "as §1, §2"}, "LNCaP cells": {"tested_on": "LNCaP cells", "conditions": "LNCaP cells in soft agar, 50 μM, 21 day-incubation", "method": "The soft agar assay was performed as described previously (Menter D G, Sabichi A L, Lippman S M., 2000, Selenium effects on prostate cell growth. Cancer Epidemiol Biomarkers Prev 9:1171-82) with a few modifications. In brief, in a six-well plate, a bottom feeder layer (0.6% agar) was prepared with DMEM media containing 10% fetal bovine serum, 100 units/ml penicillin, and 100 μg/ml streptomycin. […] Plates were incubated at 37° C. in 5% CO2 in a humidified incubator for three weeks. MTT (1 mg/ml) was added to each well and incubated overnight to allow complete formation of purple formazan crystals. The plates were then scanned and photographed, and the number of colonies was quantified by Quantity one v.4.0.3 software (Bio-Rad, Hercules, Calif.)."}, "PCI-13 cells": {"tested_on": "PCI-13 cells", "conditions": "PCI-13, 50 μM, 48 hour", "method": "(§3) To assay nuclear morphology, both the detached or remaining attached solid tumor cells were washed with PBS, fixed with 70% ethanol for 1 hour, and stained with Hoechst 33342 (50 μM) for 30 minutes. The nuclear morphology of cells was visualized by a fluorescence microscope.\n(§4) Both attached and detached cell populations were then used for detection of apoptotic nuclear changes."}, "MCF-7 cells": {"tested_on": "MCF-7 cells", "conditions": "MCF-7, 50 μM, 24 hour", "method": "as §3, §4"}, "caspase-9": {"tested_on": "caspase-9", "conditions": "Jurkat T cells", "method": "(§5) J. Biol Chem 276:13322-30 with some modifications. Briefly, a prepared protein extract (20 μg) is incubated in a buffer containing 50 mM Tris/pH 8.0 along with each respective caspase substrate at 20 μM in a 96 well plate. The reaction mixture is incubated at 37° C. for 2 h. After incubation, the liberated fluorescent AMC or AFC groups are measured by a Wallac Victor 1420 Multilabel counter (Turku, Finland) with 355/460 […] and 405/535 nm filters, respectively."}, "caspase-8": {"tested_on": "caspase-8", "conditions": "Jurkat T cells; for increase of caspase-8 levels over untreated cells: 8 hours", "method": "as §5"}, "NK cells (YT line)": {"tested_on": "NK cells (YT line)", "conditions": "YT cells, 30 μM, 24 h", "method": "The trypan blue dye exclusion assay was performed by mixing 20 μl of cell suspension with 20 μl of 0.4% trypan blue dye before injecting into a hemocytometer and counting. The number of cells that absorbed the dye and those that exclude the dye were counted, from which the percentage of nonviable cell number to total cell number was calculated."}},
  "note": "Read-outs that look alike come from different tables or passages of the source.",
  "data": [
    {"smiles": "COC1C(=O)N(SC)C1c1ccccc1Cl", "note": "(racemic) [lactam 1]", "values": [
      {"measurement": "cell growth (MTT)", "setting": "VA-13 cells; 6 or 24 hours", "value": "completely inhibited growth"},
      {"measurement": "viable cells", "setting": "VA-13 cells; 120 hours", "value": "no viable VA-13 cells"},
      {"measurement": "cell growth (MTT)", "setting": "WI-38 cells; 24 hours", "value": "slightly inhibited the cell growth"},
      {"measurement": "cell population", "setting": "WI-38 cells; 120 hours", "value": "doubled"},
      {"measurement": "inhibition of colony formation", "setting": "LNCaP cells", "value": 91, "unit": "%"},
      {"measurement": "nuclear morphology of detached cells (Hoechst 33342)", "setting": "PCI-13 cells", "value": "apoptosis-specific nuclear morphology"},
      {"measurement": "cells detached", "setting": "MCF-7 cells", "value": "~50", "unit": "%"},
      {"measurement": "nuclear morphology of detached cells (Hoechst 33342)", "setting": "MCF-7 cells", "value": "typical apoptotic nuclear condensation and fragmentation"},
      {"measurement": "time at which caspase-9 activity is first detected", "setting": "caspase-9; 50 μM", "value": 4, "unit": "h"},
      {"measurement": "caspase-9 activity", "setting": "caspase-9; 8 hours, higher concentrations of lactam 1", "value": "Higher levels"},
      {"measurement": "time at which caspase-8 activity was detected", "setting": "caspase-8; 50 μM", "value": 2, "unit": "h"},
      {"measurement": "time of maximal caspase-8 activity", "setting": "caspase-8; 50 μM", "value": 6, "unit": "h"},
      {"measurement": "increase of caspase-8 levels over untreated cells", "setting": "caspase-8; 50 μM", "value": 5, "unit": "fold"},
      {"measurement": "increase of caspase-8 levels over untreated cells", "setting": "caspase-8; 30 to 40 μM", "value": 2, "unit": "fold"},
      {"measurement": "cell death (trypan blue)", "setting": "NK cells (YT line)", "value": 9, "unit": "%"}
    ]}
  ]
}
